One data set has as its target T1, β-galactosidase (Escherichia coli, UniProt P00722).
T1 construct: purchased Sigma Chemical Co., St. Louis, Mo
In words: In vitro kinetic assay of galactosidase substrates (absorbance increase at 490 nm). The format is biochemical. The note with it: in buffer, pH 7.0, room temperature; for Km: read-out: KM (Michaelis constant). From the text: There are two parameters to describe the catalytic reaction of an enzyme on its substrate. The turnover rate k2, i.e. the substrate conversion rate by one unit of enzyme, can be expressed as μmol/(minute·mg). The Michaelis constant KM which gives the substrate binding ability to an enzyme (the smaller is KM, the higher is binding ability), can be expressed as μM. The relevant data for turnover of five lipophilic FDG substrates by β-galactosidase is detailed in Table 2.
The substrates have essentially no absorbance at 490 nm while their hydrolysis products from reaction with β-galactosidase have a strong absorbance at this wavelength. Using the extinction coefficients of the products, the substrate hydrolysis rate can be determined by the absorbance increase at 490 nm (Table 2).
13.8 g NaH2 PO4.H2 O, 0.2 g MgCl2.6H2 O and 7 mL liquid 2-mercaptoethanol are dissolved in 1 liter distilled water and adjusted to pH 7.0 using NaOH.
The glycosidase substrates are dissolved at 5 mg/mL in anhydrous DMSO.
β-Galactosidase (Sigma Chemical Co., St. Louis, Mo.) is dissolved at 1 mg/mL in water. This solution is stable for 24 hours at room temperature.
A series of substrate concentrations between 1 μM and 1 mM in 2.8 mL of the assay buffer is prepared and pipetted into a cuvette. 0.2 mL of a 1 mg/mL solution of β-galactosidase in water is added in the cuvette at room temperature to initiate the enzymatic reaction and the absorbance increase at 490 nm is immediately recorded in the spectrophotometer equipped with a chart recorder set at a speed of 10 mm/min. The enzyme reaction rate is calculated using an appropriate product extinction coefficient. Double reciprocal plotting of reaction rate and substrate concentration will yield the turnover rate and Michaelis constant (Stryer, BIOCHEMISTRY p. 189 (W. H. Freeman & Co., N.Y. 1988)).

In another data set the test system is cells. In words: Cytotoxicity of the labeling reagent for cultured cells. The note with it: for toxicity effects on labelled cells: concentration up to 100 mM. The format is cell-based.
A further data set concerns NIH3T3 (lacZ-) cells. The data set is described as follows: Labeling of lacZ- control cells with fluorogenic substrate, fluorescence microscopy. The class given is cell-based, mouse. The note with it: 60 μM, after 1 hr. incubation. On the procedure: (§1) CRE BAG 2 (lacZ+) cells were used to test the effectiveness of the substrate in labeling lacZ+ cells. NIH3T3 (lacZ-) cells were used as a control. Both cell lines were obtained from American Type Culture Collection Co., Rockville, Md. The cells were grown in a humidified atmosphere of 5% CO2 in Dulbecco's modified Eagle's medium (DMEM) supplemented with 10% calf serum, 50 μg/ml gentamycin, 300 μg/ml L-glutamine and 10 mM HEPES pH 7.4 (culture medium).
(§2) to 1.0 mg of 5-fattyacylaminofluorescein di-β-galactopyranoside substrate (C12 FDG) was added 0.1193 ml of 20% DMSO to get 10 mM stock solution. Stock solutions were kept sealed in the brown bottle and stored at 4° C.
(§3) […] Labeling culture medium was filter-sterilized by passing through an ACRODISC™ filter (0.20 μm pore size).
Cells were washed with fresh (non-labeling) culture medium before examination. Cells were observed using a microscope equipped with a fluorescein filter. […] After 6 hrs., the fluorescence intensity in CRE BAG 2 cells reached its highest level.

The subject of the next data set is CRE BAG 2 (lacZ+) cells. The data set is described as follows: Labeling of lacZ+ cells with fluorogenic substrate, fluorescence microscopy. The class given is cell-based, mouse. The conditions noted are these: 60 μM.
Source text: The photographs were taken under a Zeiss Axioplan Microscope equipped with FITC filter set using Fujichrome p1600 color reversal (slide) film. This film was then commercially developed. The black and white photographs were printed from color slides under the following conditions: 1)Internegative using Ilford Panf film, exposed for 1/60 sec. at f11;2) black and white prints on Kodak polycontrast III paper.
as §1, §2, §3
Cells were washed with fresh (non-labeling) culture medium before examination. […] After 6 hrs., the fluorescence intensity in CRE BAG 2 cells reached its highest level.

A further data set deals with plant cell populations. The note with it: cited from earlier work.
In data set [1] the test system is GUS gene positive tobacco plant cells. The data set is described as follows: Detection of GUS gene expression in transformed plant cells. The class given is cell-based. The note with it: 100 μM, 4 h incubation, GUS+ versus control cells. On the procedure: In our cellular assay, the tobacco plant with and without the GUS gene (CaMV35S-GUS, cauliflower mosaic virus 35S promoter with the coding region of GUS) were used. (Ref: Jefferson, R.A., EMBO J., 1987, 6, 3901-3907).
Sections of the stem of both plants were cultured on Murashige and Skoog basal medium with sucrose and agar inside of plant culture dish at 2000 lux, 18 h day, 26° C. The calli were collected from the dishes, cut to small pieces and transferred to liquid medium (in screw cap 50 ml Erlenmeyer flasks) to get cell suspension with shaking (120 rpm) at the culture room. Sterilized 1 mM FA910 solution (in water) was added to the cell suspension to final concentration of 100μM. After incubating cells in normal condition for 4 h, take 1 ml of suspension, spin down the cells. The cells were resuspended in 100 μl of fresh culture medium, placed onto glass slide, covered with a cover glass and sealed with wax.
Both the GUS+ and control tobacco cells were examined under a Zeiss microscope equipped with FITC filter set. Photographs were taken of both fluorescent and Nomaski images (Fujichrome P1600D, color reversal film, daylight).

In another data set the test system is lacZ+ cell. In words: Examination of galactosidase activity of sorted cells with resorufin galactoside. The class given is cell-based. The conditions noted are these: 0.5 mM, 0.1 M phosphate buffer, 0.1% Triton X-100. As to the method:
The sorted cell is collected in a 96 well microtiter plate (Corning, N.Y.). The cell galactosidase activity is examined by means of the permeant fluorogenic substrate resorufin galactoside (Molecular Probes, Inc., Eugene, OR). To 20 μl cell sample in a microtiter well, is added 200 μl of a 0.5 mM resorufin galactoside solution in 0.1 M phosphate buffer containing 1 mM MgCl2 and 0.1% Triton X-100. After 1 hour incubation, the plate is read in a CYTOFLUOR™ fluorescence plate reader (Millipore, Bedford, Mass.) with excitation at 560 nm, emission at 645 nm, sensitivity=1. A fluorescence reading below 20 can be scored lacZ- cell and a reading higher than 60 can be scored lacZ+. The resorufin galactoside can detect the enzyme activity in a single lacZ^+ cell within 1 hour.

Entries after “also recorded” stand apart in the source; their conditions may differ. Structures can show the parent of a compound that is named as a salt. Where two headings read alike, the source gives them in different places.

T1 sequence (P00722 2-1024): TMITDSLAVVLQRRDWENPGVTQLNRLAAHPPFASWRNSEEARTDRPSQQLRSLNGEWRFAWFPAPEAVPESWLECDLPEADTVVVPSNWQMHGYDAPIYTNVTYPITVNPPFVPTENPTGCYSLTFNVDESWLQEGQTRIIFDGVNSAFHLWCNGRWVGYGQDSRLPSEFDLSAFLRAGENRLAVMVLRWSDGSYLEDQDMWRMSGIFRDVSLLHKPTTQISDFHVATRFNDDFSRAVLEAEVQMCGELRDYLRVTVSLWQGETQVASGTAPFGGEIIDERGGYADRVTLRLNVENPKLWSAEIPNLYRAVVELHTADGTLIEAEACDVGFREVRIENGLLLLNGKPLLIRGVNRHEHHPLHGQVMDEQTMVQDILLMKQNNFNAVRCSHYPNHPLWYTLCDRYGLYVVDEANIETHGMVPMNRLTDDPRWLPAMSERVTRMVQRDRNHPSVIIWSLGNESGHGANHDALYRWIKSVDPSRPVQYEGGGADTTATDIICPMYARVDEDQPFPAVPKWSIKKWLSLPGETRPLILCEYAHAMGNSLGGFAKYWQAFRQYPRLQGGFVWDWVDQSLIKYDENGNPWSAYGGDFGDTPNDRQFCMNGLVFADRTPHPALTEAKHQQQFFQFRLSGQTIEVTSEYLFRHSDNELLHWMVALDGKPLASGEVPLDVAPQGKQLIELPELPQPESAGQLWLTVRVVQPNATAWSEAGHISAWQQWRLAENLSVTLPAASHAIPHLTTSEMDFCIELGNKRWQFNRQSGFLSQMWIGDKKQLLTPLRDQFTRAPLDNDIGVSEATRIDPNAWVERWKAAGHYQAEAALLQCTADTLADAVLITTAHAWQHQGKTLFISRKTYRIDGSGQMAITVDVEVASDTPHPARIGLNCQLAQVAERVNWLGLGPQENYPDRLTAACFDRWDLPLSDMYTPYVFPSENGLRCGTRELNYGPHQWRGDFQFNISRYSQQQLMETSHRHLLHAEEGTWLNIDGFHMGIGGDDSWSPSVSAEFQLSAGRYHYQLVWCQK

In general, Km refers to the concentration of substrate that gives half-maximal velocity. Regarding `O=C1OC2(c3ccc(O[C@@H]4O[C@H](CO)[C@H](O)[C@H](O)[C@H]4O)cc3Oc3cc(O[C@@H]4O[C@H](CO)[C@H](O)[C@H](O)[C@H]4O)ccc32)c2ccccc21` [C0 FDG, fluorescein di-62-galactopyranoside, reference compound], on β-galactosidase, the “k2 (turnover rate)” value came out at 1.90 µmol/min/mg and the Km turned out to be 18 µM.
With `CCCCCCCCCCCC(=O)Nc1ccc2c(c1)C(=O)OC21c2ccc(O[C@@H]3O[C@H](CO)[C@H](O)[C@H](O)[C@H]3O)cc2Oc2cc(O[C@@H]3O[C@H](CO)[C@H](O)[C@H](O)[C@H]3O)ccc21` [C12 FDG, 5-DODECANOYLAMINOFLUORESCEIN DI-β-D-GALACTOPYRANOSIDE], the “k2 (turnover rate)” value on β-galactosidase worked out at 0.0537 µmol/min/mg. On β-galactosidase, the Km worked out at 0.316 µM. For the same compound, the “population doubling time compared with control” value in the data set on cells (60 μM labeling medium) and with cells (0.2 mM in the culture medium) was “same population doubling time as the control” in each case. Besides, the “toxicity effects on labelled cells” value in the data set with cells is recorded as “no detectible toxicity effects”. Also, the “morphology and viability of cells” value in the data set with cells (grown in 0.2 mM for 10 days) was “normal morphology and remained viable; also recorded: normal in morphology and appearance”. The “second generation of subcultured cells” value in the data set on cells (preincubated in 60 μM for 24 hrs.) is “cells of second generation were normal”; with cells (preincubated in the labeled culture medium for 24 hrs.), “cells of the second generation were normal”. For the same compound, the “fluorescence in 3T3 cells” value with NIH3T3 (lacZ-) cells was “not in 3T3 cells”. Further, in the data set with CRE BAG 2 (lacZ+) cells, the “time at which fluorescence intensity in CRE BAG 2 cells reached its highest level” value was found to be 6 h. Further, the “fluorescence inside CRE BAG 2 cells” value in the data set with CRE BAG 2 (lacZ+) cells (after 1 hr. incubation) was “fluorescence was observed inside CRE BAG 2 cells”.
Consider `CCCCCCCCCCCCCCCC(=O)Nc1ccc2c(c1)C(=O)OC21c2ccc(O[C@@H]3O[C@H](CO)[C@H](O)[C@H](O)[C@H]3O)cc2Oc2cc(O[C@@H]3O[C@H](CO)[C@H](O)[C@H](O)[C@H]3O)ccc21` [C16 FDG], for which, at β-galactosidase, the “k2 (turnover rate)” value is 0.273 µmol/min/mg and the Km was found to be 1.06 µM. Further, the “toxicity effects on labelled cells” value in the data set with cells is “no detectible toxicity effects”.
The corresponding values for `CCCCCCCCCCCCCCCCCC(=O)Nc1ccc2c(c1)C(=O)OC21c2ccc(O[C@@H]3O[C@H](CO)[C@H](O)[C@H](O)[C@H]3O)cc2Oc2cc(O[C@@H]3O[C@H](CO)[C@H](O)[C@H](O)[C@H]3O)ccc21` [C18 FDG] are 8.28 µmol/min/mg, 20.8 µM and “no detectible toxicity effects”.
Regarding `CCCCCCCCCCCCCCCCCC(=O)Nc1ccc2c(c1)C(=O)OC21c2ccc(O)cc2Oc2cc(O)ccc21` [Example F18, octadecanoyl aminofluorescein], in the data set on plant cell populations, the “toxicity to the cells” value is “non-toxic”.
Take `CCCCCCCCCCCCCCCCCCOC(=O)c1ccccc1-c1c2ccc(=[N+](CC)CC)cc-2oc2cc(N(CC)CC)ccc12` [Example R18, octadecyl rhodamine B]: the “toxicity to the cells” value in the data set on plant cell populations is “non-toxic”.
For `CCCCCCCCCCCC(=O)Nc1ccc2c(c1)C(=O)OC21c2ccc(O[C@@H]3O[C@H](C(=O)O)[C@@H](O)[C@H](O)[C@H]3O)cc2Oc2cc(O[C@@H]3O[C@H](C(=O)O)[C@@H](O)[C@H](O)[C@H]3O)ccc21` [FA910, 5-DODECANOYLAMINOFLUORESCEIN DI-β-D-GLUCOPYRANOSIDURONIC ACID, DI-LITHIUM SALT], in data set [1], the “staining of tobacco cells (yellowish-green fluorescence)” value is on record as “Only the GUS gene positive tobacco plant cells were stained”.
`O=c1ccc2nc3ccc(O[C@@H]4O[C@H](CO)[C@H](O)[C@H](O)[C@H]4O)cc3oc-2c1` [resorufin galactoside]: in the data set on lacZ+ cell, the “time to detect enzyme activity in a single lacZ+ cell” value was at most 1 h.
Take fluorescein isothiocyanate [FITC]: the “toxicity to the cells” value with plant cell populations is given as “non-toxic”. Besides, the “toxicity to the cells at high levels” value in the data set with plant cell populations (high levels) is reported as “toxic at high levels”.
On to rhodamine isothiocyanate [RITC], for which, in the data set on plant cell populations, the “toxicity to the cells” value is listed as “non-toxic” and the “toxicity to the cells at high levels” value is on record as “toxic at high levels”.

(Values after patent US5208148A, “Lipophilic fluorescent glycosidase substrates” (Molecular Probes, Inc., priority 1990, dated 1993).)
